Where two headings read alike, the source gives them in different places.
How the values were obtained:
CB1 receptors = CB1 receptors (Homo sapiens, UniProt P21554); settings: cited from earlier work
TRPV1 channels = assay: Calcium assay of TRPV1 channel activity in HEK-TRPV1 cells; assay type: cell-based; settings: Fluo-4 loaded, 1 mM external calcium chloride, 0-20 seconds baseline, compound added at 20 seconds, FIGS. 1A-1D
Protocol: Molecular Pharmacology, 2016, volume 90, pages 300-308) HEK 293 cells with TRPV1 channels have been used as model systems (P. Geppetti and M. Trevisani, Activation and sensitisation of the vanilloid receptor: role in gastrointestinal inflammation and function, British Journal of Pharmacology, 2004, volume 141, pages 1313-1320);
HEK TRexTRPV1 cultured in DMEM, 10% Fetal Bovine Serum, 2 mM L-glutamine, 10 microgramg/m1 Blasticidin (Calbiochem, San Diego Calif.), […] Zeocin (InvivoGen, San Diego Calif.), followed by inducing indicated transgene expression using 1 microgram/ml Tetracycline for 16-24 hrs. Comparisons made to untransfected HEK cells or HEKTRexTRPV1 with or without induction.
[…] Cells transferred to 96-well plates at 50,000 cells/well and stimulated as indicated. Calcium signals acquired using a Flexstation 3 (Molecular Devices, Sunnydale, USA). Data are analyzed according to the methods in I. Diaz-Franulic, J. Caceres-Molina, R. V. Sepulveda, F. Gonzalez-Nilo, R. Latorre, Structure-Driven Pharmacology of Transient Receptor Potential Channel Vanilloid 1, Molecular Pharmacology, 2016, volume 90, pages 300-8. […]

CB2 = CB2 (Homo sapiens, UniProt P34972); settings: background statement with literature references; cited from earlier work
[1] = background statement with literature references

Chain of CB2 (P34972 whole entry, species assumed): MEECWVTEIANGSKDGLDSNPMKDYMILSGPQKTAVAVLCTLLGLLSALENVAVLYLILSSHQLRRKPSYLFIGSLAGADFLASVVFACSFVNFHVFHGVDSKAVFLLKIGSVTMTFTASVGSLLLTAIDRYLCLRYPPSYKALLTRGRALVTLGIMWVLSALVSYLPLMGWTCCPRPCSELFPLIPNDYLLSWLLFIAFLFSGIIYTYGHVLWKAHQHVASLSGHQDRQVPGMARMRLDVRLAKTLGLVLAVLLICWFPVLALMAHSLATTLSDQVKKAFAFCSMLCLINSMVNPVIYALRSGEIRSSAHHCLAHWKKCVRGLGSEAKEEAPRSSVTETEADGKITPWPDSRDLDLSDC
Chain of CB1 receptors (P21554 whole entry): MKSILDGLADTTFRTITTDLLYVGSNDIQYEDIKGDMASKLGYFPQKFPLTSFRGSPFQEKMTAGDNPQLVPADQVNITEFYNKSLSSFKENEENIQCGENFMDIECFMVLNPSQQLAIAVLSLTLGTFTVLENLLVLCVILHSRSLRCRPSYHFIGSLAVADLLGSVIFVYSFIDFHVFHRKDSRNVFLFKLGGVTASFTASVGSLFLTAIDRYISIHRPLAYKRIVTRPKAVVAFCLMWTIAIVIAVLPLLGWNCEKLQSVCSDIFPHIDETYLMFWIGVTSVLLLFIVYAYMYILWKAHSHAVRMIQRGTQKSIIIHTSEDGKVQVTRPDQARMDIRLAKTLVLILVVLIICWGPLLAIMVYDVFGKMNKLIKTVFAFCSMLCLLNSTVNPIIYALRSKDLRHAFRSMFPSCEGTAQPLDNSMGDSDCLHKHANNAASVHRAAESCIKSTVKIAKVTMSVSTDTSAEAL

| Compound | CB1 receptor modulation (kind of action) (CB1 receptors; [1]) | biological finger print and dose response on TRPV1 channels (calcium signal), synthesized vs reference standard cannabidiol (TRPV1 channels) | CB2 receptor modulation (kind of action) (CB2) | CB1 receptor modulation (kind of action) (CB1 receptors) |
| --- | --- | --- | --- | --- |
| C=C(C)[C@@H]1CCC(C)=C[C@H]1c1c(O)cc(CCCCC)cc1O [cannabidiol (11, CBD), Cannabidiol] | do not interact significantly | same “biological finger print” and dose response | do not interact significantly | – |
| C=C(C)[C@@H]1CCC(C)=C[C@H]1c1c(O)cc(CCC)cc1O [cannabidivarin (12), cannabidivarin] | do not interact significantly | – | do not interact significantly | – |
| CCCCCc1cc(O)c2c(c1)OC(C)(C)c1ccc(C)cc1-2 [cannabinol (10), cannabinol] | – | – | modest agonists | weak agonist |
| CCCc1cc(O)c2c(c1)OC(C)(C)[C@@H]1CCC(C)=C[C@@H]21 [tetrahydrocannabivarin (9), tetrahydrocannabivarin] | weak antagonist | – | modest agonists | – |

— patent US11685724B2, “Synthetic intermediates for novel cannabinoids and cannabinoid acids and their derivatives” (priority 2018, dated 2023)
